Assay results reported in ChEMBL document CHEMBL1151757, “Synthesis, radiosynthesis, and biological evaluation of fluorine-18-labeled 2beta-carbo(fluoroalkoxy)-3beta-(3'-((Z)-2-haloethenyl)phenyl)nortropanes: candidate radioligands for in vivo imaging of the serotonin transporter with positron emission tomography” (J Med Chem, 2008).

Experiments:
[1] = test system: Thalamus; test: Drug uptake in anesthetized cynomolgus monkey brain thalamus after 105 mins postinjection; assay type: ADME, organism-based, Macaca fascicularis; parameters: unit not given here; conditions: in vivo, 1.75 h
[2] = Ratio of drug uptake in midbrain to cerebellum in anesthetized cynomolgus monkey after 125 mins postinjection; assay type: ADME, organism-based, Macaca fascicularis; conditions: in vivo
[3] = Ratio of drug uptake in thalamus to cerebellum in anesthetized cynomolgus monkey after 155 mins postinjection; assay type: ADME, organism-based, Macaca fascicularis; conditions: in vivo
[4] = Ratio of drug uptake in putamen to cerebellum in anesthetized cynomolgus monkey after 235 mins postinjection; assay type: ADME, organism-based, Macaca fascicularis; conditions: in vivo
[5] = test system: Thalamus; test: Drug uptake in anesthetized cynomolgus monkey brain thalamus after 22.5 mins postinjection; assay type: ADME, organism-based, Macaca fascicularis; parameters: unit not given here; conditions: in vivo, 0.375 h
[6] = test system: Caudate; test: Drug uptake in anesthetized cynomolgus monkey brain caudate after 95 mins postinjection; assay type: ADME, organism-based, Macaca fascicularis, Caudate nucleus; conditions: in vivo
[7] = test system: Putamen; test: Drug uptake in anesthetized cynomolgus monkey brain putamen after 2.5 mins postinjection; assay type: ADME, organism-based, Macaca fascicularis; conditions: in vivo
[8] = test system: Pons; test: Drug uptake in anesthetized cynomolgus monkey brain pons after 125 mins postinjection; assay type: ADME, organism-based, Macaca fascicularis; conditions: in vivo
[9] = Ratio of drug uptake in frontal lobe to cerebellum in anesthetized cynomolgus monkey after 135 mins postinjection; assay type: ADME, organism-based, Macaca fascicularis; conditions: in vivo, 2.25 h
[10] = test system: Caudate; test: Drug uptake in anesthetized cynomolgus monkey brain caudate after 1.5 mins postinjection; assay type: ADME, organism-based, Macaca fascicularis, Caudate nucleus; conditions: in vivo, 0.025 h
[11] = Ratio of drug uptake in occipital lobe to cerebellum in anesthetized cynomolgus monkey after 4.5 mins postinjection; assay type: ADME, organism-based, Macaca fascicularis; conditions: in vivo, 0.075 h
[12] = test system: Midbrain; test: Drug uptake in anesthetized cynomolgus monkey brain midbrain after 3.5 mins postinjection; assay type: ADME, organism-based, Macaca fascicularis; parameters: unit not given here; conditions: in vivo
[13] = Ratio of drug uptake in putamen to cerebellum in anesthetized cynomolgus monkey after 0.5 mins postinjection; assay type: ADME, organism-based, Macaca fascicularis; conditions: in vivo
[14] = Ratio of drug uptake in caudate to cerebellum in anesthetized cynomolgus monkey after 135 mins postinjection; assay type: ADME, organism-based, Macaca fascicularis; conditions: in vivo, 2.25 h
[15] = test system: Caudate; test: Drug uptake in anesthetized cynomolgus monkey brain caudate after 6.5 mins postinjection; assay type: ADME, organism-based, Macaca fascicularis, Caudate nucleus; conditions: in vivo
[16] = test system: Pons; test: Drug uptake in anesthetized cynomolgus monkey brain pons after 3.5 mins postinjection; assay type: ADME, organism-based, Macaca fascicularis; conditions: in vivo
[17] = Drug uptake in anesthetized cynomolgus monkey brain cerebellum after 115 mins postinjection; assay type: ADME, organism-based, Macaca fascicularis; conditions: in vivo
[18] = test system: Thalamus; test: Drug uptake in anesthetized cynomolgus monkey brain thalamus after 185 mins postinjection; assay type: ADME, organism-based, Macaca fascicularis; conditions: in vivo
[19] = test system: Pons; test: Drug uptake in anesthetized cynomolgus monkey brain pons after 6.5 mins postinjection; assay type: ADME, organism-based, Macaca fascicularis; conditions: in vivo
[20] = test system: Medulla; test: Drug uptake in anesthetized cynomolgus monkey brain medulla after 27.5 mins postinjection; assay type: ADME, organism-based, Macaca fascicularis; conditions: in vivo
[21] = test system: Putamen; test: Drug uptake in anesthetized cynomolgus monkey brain putamen after 145 mins postinjection; assay type: ADME, organism-based, Macaca fascicularis; conditions: in vivo
[22] = Drug uptake in anesthetized cynomolgus monkey brain frontal lobe after 22.5 mins postinjection; assay type: ADME, organism-based, Macaca fascicularis; conditions: in vivo, 0.375 h
[23] = test system: Midbrain; test: Drug uptake in anesthetized cynomolgus monkey brain midbrain after 0.5 mins postinjection; assay type: ADME, organism-based, Macaca fascicularis; parameters: unit not given here; conditions: in vivo
[24] = test system: Thalamus; test: Drug uptake in anesthetized cynomolgus monkey brain thalamus after 18.5 mins postinjection; assay type: ADME, organism-based, Macaca fascicularis; parameters: unit not given here; conditions: in vivo
[25] = test system: Putamen; test: Drug uptake in anesthetized cynomolgus monkey brain putamen after 1.5 mins postinjection; assay type: ADME, organism-based, Macaca fascicularis; conditions: in vivo, 0.025 h
[26] = test system: Midbrain; test: Drug uptake in anesthetized cynomolgus monkey brain midbrain after 22.5 mins postinjection; assay type: ADME, organism-based, Macaca fascicularis; parameters: unit not given here; conditions: in vivo, 0.375 h
[27] = test system: Pons; test: Drug uptake in anesthetized cynomolgus monkey brain pons after 135 mins postinjection; assay type: ADME, organism-based, Macaca fascicularis; conditions: in vivo, 2.25 h
[28] = Drug uptake in anesthetized cynomolgus monkey brain occipital lobe after 235 mins postinjection; assay type: ADME, organism-based, Macaca fascicularis; conditions: in vivo
[29] = Ratio of drug uptake in caudate to cerebellum in anesthetized cynomolgus monkey after 225 mins postinjection; assay type: ADME, organism-based, Macaca fascicularis; conditions: in vivo, 3.75 h
[30] = Drug uptake in anesthetized cynomolgus monkey brain frontal lobe after 55 mins postinjection; assay type: ADME, organism-based, Macaca fascicularis; conditions: in vivo
[31] = test system: Caudate; test: Drug uptake in anesthetized cynomolgus monkey brain caudate after 135 mins postinjection; assay type: ADME, organism-based, Macaca fascicularis, Caudate nucleus; conditions: in vivo, 2.25 h
[32] = Drug uptake in anesthetized cynomolgus monkey brain cerebellum after 195 mins postinjection; assay type: ADME, organism-based, Macaca fascicularis; conditions: in vivo, 3.25 h
[33] = Drug uptake in anesthetized cynomolgus monkey brain occipital lobe after 4.5 mins postinjection; assay type: ADME, organism-based, Macaca fascicularis; conditions: in vivo, 0.075 h
[34] = Ratio of drug uptake in occipital lobe to cerebellum in anesthetized cynomolgus monkey after 115 mins postinjection; assay type: ADME, organism-based, Macaca fascicularis; conditions: in vivo
[35] = test system: Putamen; test: Drug uptake in anesthetized cynomolgus monkey brain putamen after 185 mins postinjection; assay type: ADME, organism-based, Macaca fascicularis; conditions: in vivo
[36] = test system: Caudate; test: Drug uptake in anesthetized cynomolgus monkey brain caudate after 18.5 mins postinjection; assay type: ADME, organism-based, Macaca fascicularis, Caudate nucleus; conditions: in vivo
[37] = test system: Medulla; test: Drug uptake in anesthetized cynomolgus monkey brain medulla after 145 mins postinjection; assay type: ADME, organism-based, Macaca fascicularis; conditions: in vivo
[38] = Drug uptake in anesthetized cynomolgus monkey brain frontal lobe after 65 mins postinjection; assay type: ADME, organism-based, Macaca fascicularis; conditions: in vivo
[39] = test system: Putamen; test: Drug uptake in anesthetized cynomolgus monkey brain putamen after 65 mins postinjection; assay type: ADME, organism-based, Macaca fascicularis; parameters: unit not given here; conditions: in vivo
[40] = Drug uptake in anesthetized cynomolgus monkey brain cerebellum after 0.5 mins postinjection; assay type: ADME, organism-based, Macaca fascicularis; conditions: in vivo
[41] = Drug uptake in anesthetized cynomolgus monkey brain cerebellum after 175 mins postinjection; assay type: ADME, organism-based, Macaca fascicularis; conditions: in vivo
[42] = test system: Caudate; test: Drug uptake in anesthetized cynomolgus monkey brain caudate after 105 mins postinjection; assay type: ADME, organism-based, Macaca fascicularis, Caudate nucleus; conditions: in vivo, 1.75 h
[43] = Drug uptake in anesthetized cynomolgus monkey brain occipital lobe after 15.5 mins postinjection; assay type: ADME, organism-based, Macaca fascicularis; conditions: in vivo
[44] = Ratio of drug uptake in medulla to cerebellum in anesthetized cynomolgus monkey after 195 mins postinjection; assay type: ADME, organism-based, Macaca fascicularis; conditions: in vivo, 3.25 h
[45] = Ratio of drug uptake in midbrain to cerebellum in anesthetized cynomolgus monkey after 27.5 mins postinjection; assay type: ADME, organism-based, Macaca fascicularis; conditions: in vivo
[46] = test system: Midbrain; test: Drug uptake in anesthetized cynomolgus monkey brain midbrain after 185 mins postinjection; assay type: ADME, organism-based, Macaca fascicularis; conditions: in vivo
[47] = test system: Caudate; test: Drug uptake in anesthetized cynomolgus monkey brain caudate after 125 mins postinjection; assay type: ADME, organism-based, Macaca fascicularis, Caudate nucleus; conditions: in vivo
[48] = Ratio of drug uptake in pons to cerebellum in anesthetized cynomolgus monkey after 18.5 mins postinjection; assay type: ADME, organism-based, Macaca fascicularis; conditions: in vivo
[49] = test system: Putamen; test: Drug uptake in anesthetized cynomolgus monkey brain putamen after 175 mins postinjection; assay type: ADME, organism-based, Macaca fascicularis; conditions: in vivo
[50] = test system: Midbrain; test: Drug uptake in anesthetized cynomolgus monkey brain midbrain after 95 mins postinjection; assay type: ADME, organism-based, Macaca fascicularis; parameters: unit not given here; conditions: in vivo
[51] = test system: Thalamus; test: Drug uptake in anesthetized cynomolgus monkey brain thalamus after 35 mins postinjection; assay type: ADME, organism-based, Macaca fascicularis; parameters: unit not given here; conditions: in vivo
[52] = Ratio of drug uptake in midbrain to cerebellum in anesthetized cynomolgus monkey after 22.5 mins postinjection; assay type: ADME, organism-based, Macaca fascicularis; conditions: in vivo, 0.375 h
[53] = Ratio of drug uptake in occipital lobe to cerebellum in anesthetized cynomolgus monkey after 205 mins postinjection; assay type: ADME, organism-based, Macaca fascicularis; conditions: in vivo
[54] = test system: Midbrain; test: Drug uptake in anesthetized cynomolgus monkey brain midbrain after 205 mins postinjection; assay type: ADME, organism-based, Macaca fascicularis; conditions: in vivo
[55] = test system: Caudate; test: Drug uptake in anesthetized cynomolgus monkey brain caudate after 155 mins postinjection; assay type: ADME, organism-based, Macaca fascicularis, Caudate nucleus; conditions: in vivo
[56] = test system: Pons; test: Drug uptake in anesthetized cynomolgus monkey brain pons after 235 mins postinjection; assay type: ADME, organism-based, Macaca fascicularis; conditions: in vivo
[57] = Drug uptake in anesthetized cynomolgus monkey brain frontal lobe after 105 mins postinjection; assay type: ADME, organism-based, Macaca fascicularis; conditions: in vivo, 1.75 h
[58] = test system: Medulla; test: Drug uptake in anesthetized cynomolgus monkey brain medulla after 6.5 mins postinjection; assay type: ADME, organism-based, Macaca fascicularis; conditions: in vivo
[59] = test system: Pons; test: Drug uptake in anesthetized cynomolgus monkey brain pons after 105 mins postinjection; assay type: ADME, organism-based, Macaca fascicularis; conditions: in vivo, 1.75 h
[60] = test system: Midbrain; test: Drug uptake in anesthetized cynomolgus monkey brain midbrain after 15.5 mins postinjection; assay type: ADME, organism-based, Macaca fascicularis; parameters: unit not given here; conditions: in vivo
[61] = Ratio of drug uptake in thalamus to cerebellum in anesthetized cynomolgus monkey after 115 mins postinjection; assay type: ADME, organism-based, Macaca fascicularis; conditions: in vivo
[62] = test system: Pons; test: Drug uptake in anesthetized cynomolgus monkey brain pons after 225 mins postinjection; assay type: ADME, organism-based, Macaca fascicularis; conditions: in vivo, 3.75 h
[63] = test system: Putamen; test: Drug uptake in anesthetized cynomolgus monkey brain putamen after 225 mins postinjection; assay type: ADME, organism-based, Macaca fascicularis; conditions: in vivo, 3.75 h
[64] = Ratio of drug uptake in frontal lobe to cerebellum in anesthetized cynomolgus monkey after 205 mins postinjection; assay type: ADME, organism-based, Macaca fascicularis; conditions: in vivo
[65] = test system: Medulla; test: Drug uptake in anesthetized cynomolgus monkey brain medulla after 175 mins postinjection; assay type: ADME, organism-based, Macaca fascicularis; conditions: in vivo
[66] = test system: Pons; test: Drug uptake in anesthetized cynomolgus monkey brain pons after 75 mins postinjection; assay type: ADME, organism-based, Macaca fascicularis; conditions: in vivo, 1.25 h
[67] = Ratio of drug uptake in pons to cerebellum in anesthetized cynomolgus monkey after 225 mins postinjection; assay type: ADME, organism-based, Macaca fascicularis; conditions: in vivo, 3.75 h
[68] = test system: Medulla; test: Drug uptake in anesthetized cynomolgus monkey brain medulla after 85 mins postinjection; assay type: ADME, organism-based, Macaca fascicularis; conditions: in vivo

O=C(OCC[18F])C1C2CCC(CC1c1cccc(/C=C\Br)c1)N2 (stereo not drawn)
Drug uptake [1]: 4.23
Ratio [2]: 1.8
Ratio [3]: 1.7
Ratio [4]: 1.8
Drug uptake [5]: 3.43
Drug uptake [6]: 4.15
Drug uptake [7]: 0.4
Drug uptake [8]: 4.27
Ratio [9]: 1.1
Drug uptake [10]: 0.04
Ratio [11]: 0.7
Drug uptake [12]: 0.95
Ratio [13]: 1.3
Ratio [14]: 1.5
Drug uptake [15]: 1.92
Drug uptake [16]: 0.82
Drug uptake [17]: 2.78
Drug uptake [18]: 3.48
Drug uptake [19]: 2.79
Drug uptake [20]: 4.57
Drug uptake [21]: 4.21
Drug uptake [22]: 2.54
Drug uptake [23]: 0.01
Drug uptake [24]: 3.32
Drug uptake [25]: 0.06
Drug uptake [26]: 4.28
Drug uptake [27]: 4.26
Drug uptake [28]: 1.94
Ratio [29]: 1.8
Drug uptake [30]: 2.8
Drug uptake [31]: 3.74
Drug uptake [32]: 1.79
Drug uptake [33]: 1.32
Ratio [34]: 1.1
Drug uptake [35]: 3.68
Drug uptake [36]: 2.8
Drug uptake [37]: 3.92
Drug uptake [38]: 2.94
Drug uptake [39]: 5.1
Drug uptake [40]: 0
Drug uptake [41]: 2.03
Drug uptake [42]: 4.01
Drug uptake [43]: 2.99
Ratio [44]: 1.9
Ratio [45]: 1.2
Drug uptake [46]: 4.14
Drug uptake [47]: 3.75
Ratio [48]: 1.1
Drug uptake [49]: 3.76
Drug uptake [50]: 4.91
Drug uptake [51]: 3.89
Ratio [52]: 1.1
Ratio [53]: 1.3
Drug uptake [54]: 4
Drug uptake [55]: 3.47
Drug uptake [56]: 3.08
Drug uptake [57]: 2.69
Drug uptake [58]: 3.64
Drug uptake [59]: 4.34
Drug uptake [60]: 4.06
Ratio [61]: 1.5
Drug uptake [62]: 2.77
Drug uptake [63]: 3
Ratio [64]: 1.1
Drug uptake [65]: 3.62
Drug uptake [66]: 4.51
Ratio [67]: 1.7
Drug uptake [68]: 4.73
